According to paper PMC10983791 (ACS chemical biology, 2023):
“Also recorded” adds a separate entry of the source. One block for each molecule: values may come before it.

Key:
Assay type in all cases: biochemical
HNMT [1] = target: T1, HNMT (Homo sapiens, UniProt P50135); experiment: MTase-Glo HNMT inhibition assay; settings: for potency loss: relative to the best analogs with pyridine nitrogen; for HNMT activity and specificity in SAR analysis: SAR expansion of diazepine chemotype; for activity in HTS and follow-up: MTase-Glo, top dose 40 μM
NNMT [2] = target: T2, NNMT (Homo sapiens, UniProt P40261); experiment: MTase-Glo NNMT inhibition assay; settings: for activity in HTS and follow-up: MTase-Glo, top dose 40 μM
T2 sequence (P40261 1-264): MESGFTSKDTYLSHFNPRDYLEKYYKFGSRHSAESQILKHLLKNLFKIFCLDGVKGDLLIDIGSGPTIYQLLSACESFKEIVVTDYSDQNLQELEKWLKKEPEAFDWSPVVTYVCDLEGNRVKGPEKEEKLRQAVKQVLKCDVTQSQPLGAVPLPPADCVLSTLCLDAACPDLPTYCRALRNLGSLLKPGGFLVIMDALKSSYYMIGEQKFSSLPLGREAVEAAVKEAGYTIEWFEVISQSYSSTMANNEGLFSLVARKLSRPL

GNMT [3] = target: T3, GNMT (Homo sapiens, UniProt Q14749); experiment: LC-MS orthogonal assay, GNMT
T3 sequence (Q14749 1-295): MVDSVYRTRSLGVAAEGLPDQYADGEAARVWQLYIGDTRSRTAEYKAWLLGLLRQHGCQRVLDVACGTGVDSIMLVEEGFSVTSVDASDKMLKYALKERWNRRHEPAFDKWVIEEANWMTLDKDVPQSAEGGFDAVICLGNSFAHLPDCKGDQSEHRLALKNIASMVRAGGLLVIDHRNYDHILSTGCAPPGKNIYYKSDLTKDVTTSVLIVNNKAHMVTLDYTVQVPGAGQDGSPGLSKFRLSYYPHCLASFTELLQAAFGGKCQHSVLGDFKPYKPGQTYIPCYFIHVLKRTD

GAMT = GAMT (Homo sapiens, UniProt Q14353); experiment: MTase-Glo GAMT inhibition assay; settings: for activity in HTS and follow-up: MTase-Glo, top dose 40 μM
COMT [4] = target: T4, COMT (Homo sapiens, UniProt P21964); experiment: MTase-Glo COMT inhibition assay; settings: for activity in HTS and follow-up: MTase-Glo, top dose 40 μM
T4 sequence (P21964 1-271): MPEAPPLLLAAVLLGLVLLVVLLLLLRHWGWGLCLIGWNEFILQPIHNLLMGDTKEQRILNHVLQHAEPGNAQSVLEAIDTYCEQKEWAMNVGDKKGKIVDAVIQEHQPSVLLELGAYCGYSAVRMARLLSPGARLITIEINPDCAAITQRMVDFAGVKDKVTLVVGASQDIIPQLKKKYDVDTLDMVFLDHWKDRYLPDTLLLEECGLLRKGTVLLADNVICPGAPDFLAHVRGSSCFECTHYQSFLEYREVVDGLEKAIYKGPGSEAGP

NNMT [5] = target: T2, NNMT; experiment: LC-MS orthogonal assay, NNMT
GNMT [6] = target: T3, GNMT; experiment: MTase-Glo GNMT inhibition assay; settings: for activity in HTS and follow-up: MTase-Glo, top dose 40 μM
COMT [7] = target: T4, COMT; experiment: LC-MS orthogonal assay, COMT
HNMT [8] = target: T1, HNMT; experiment: LC-MS orthogonal assay, HNMT; settings: for response in MS assay: LC-MS dose response
PNMT [9] = target: T5, PNMT (Homo sapiens, UniProt P11086); experiment: LC-MS orthogonal assay, PNMT
T5 sequence (P11086 1-282): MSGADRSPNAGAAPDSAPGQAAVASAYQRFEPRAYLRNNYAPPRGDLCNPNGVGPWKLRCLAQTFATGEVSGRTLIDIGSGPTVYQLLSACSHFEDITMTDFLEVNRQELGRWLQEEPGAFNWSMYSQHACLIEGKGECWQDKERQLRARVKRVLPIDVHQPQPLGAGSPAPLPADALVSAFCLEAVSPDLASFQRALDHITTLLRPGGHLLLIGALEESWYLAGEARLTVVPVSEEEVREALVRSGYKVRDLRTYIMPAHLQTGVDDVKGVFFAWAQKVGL

PNMT [10] = target: T5, PNMT; experiment: MTase-Glo PNMT inhibition assay; settings: for activity in HTS and follow-up: MTase-Glo, top dose 40 μM
[11] = system: MTase-Glo coupled reporter assay; experiment: MTase-Glo counter-assay; settings: 1 μM SAH in place of enzyme; for result in counter-assay replicates: two counter-assay replicates
GNMT [12] = target: T3, GNMT; experiment: KM determination by method of initial rates, GNMT; settings: read-out: KM, substrate, SAM 100 μM, MTase-Glo readout
[13] = 11-point dose response, up to 50 μM

T1 sequence (P50135 whole entry): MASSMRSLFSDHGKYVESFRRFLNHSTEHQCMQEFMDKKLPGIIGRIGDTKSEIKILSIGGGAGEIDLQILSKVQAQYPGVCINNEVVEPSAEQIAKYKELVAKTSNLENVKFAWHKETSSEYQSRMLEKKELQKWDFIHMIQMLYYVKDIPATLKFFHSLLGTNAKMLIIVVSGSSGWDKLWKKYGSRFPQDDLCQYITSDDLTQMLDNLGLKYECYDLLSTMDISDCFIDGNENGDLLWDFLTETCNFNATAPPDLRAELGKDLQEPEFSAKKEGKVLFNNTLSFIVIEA

response in MS assay (GNMT [3]): did not inhibit any SMMTase
response in MS assay (NNMT [5]): did not inhibit any SMMTase
response in MS assay (COMT [7]): did not inhibit any SMMTase
response in MS assay (HNMT [8]): did not inhibit any SMMTase
response in MS assay (PNMT [9]): did not inhibit any SMMTase
result in counter-assay replicates [11]: conflicting results
SMILES: Cc1ccc(C(=O)Nc2cnn(-c3ncncc3N3CCC(C)CC3)c2)s1 [NCGC00519779]
activity in HTS and follow-up (NNMT [2]): showed activity against all of the SMMTases tested
activity in HTS and follow-up (GAMT): showed activity against all of the SMMTases tested
activity in HTS and follow-up (COMT [4]): showed activity against all of the SMMTases tested
activity in HTS and follow-up (GNMT [6]): showed activity against all of the SMMTases tested
activity in HTS and follow-up (PNMT [10]): showed activity against all of the SMMTases tested
activity in HTS and follow-up (HNMT [1]): showed activity against all of the SMMTases tested

response in MS assay (GNMT [3]): did not inhibit any SMMTase
response in MS assay (NNMT [5]): did not inhibit any SMMTase
response in MS assay (COMT [7]): did not inhibit any SMMTase
response in MS assay (HNMT [8]): did not inhibit any SMMTase
response in MS assay (PNMT [9]): did not inhibit any SMMTase
result in counter-assay replicates [11]: conflicting results
SMILES: COc1ccc(C(=O)Nc2cnn(-c3ncncc3N3CCC(C)CC3)c2)cc1 [NCGC00519772]
activity in HTS and follow-up (NNMT [2]): showed activity against all of the SMMTases tested
activity in HTS and follow-up (GAMT): showed activity against all of the SMMTases tested
activity in HTS and follow-up (COMT [4]): showed activity against all of the SMMTases tested
activity in HTS and follow-up (GNMT [6]): showed activity against all of the SMMTases tested
activity in HTS and follow-up (PNMT [10]): showed activity against all of the SMMTases tested
activity in HTS and follow-up (HNMT [1]): showed activity against all of the SMMTases tested

response in MS assay (GNMT [3]): No response
response in MS assay (NNMT [5]): No response
response in MS assay (COMT [7]): No response
IC50 (HNMT [8]; read-out: IC50, MS assay, LC-MS readout of SAH, n=3): 670 nM
response in MS assay (PNMT [9]): No response
IC50 (HNMT [1]; read-out: IC50, MTase Glo assay): 2450 nM
SMILES: c1cncc(Nc2cc3c(cn2)CN(Cc2ccsc2)CCN3)c1 [NCGC00411044]
HNMT activity and specificity in SAR analysis (HNMT [1]; 11-point dose response): most active HNMT-selective compounds; also recorded: showed best activity

HNMT activity and specificity in SAR analysis (HNMT [1]; 11-point dose response): reduce activity
SMILES: Cn1cc(CN2CCNc3cc(Nc4cccnc4)ncc3C2)cn1 [NCGC00411154]

Continued, molecule first:

SMILES: Cc1cc(-c2cc3c(cn2)CN(Cc2cccs2)CCN3)ccn1 [NCGC00411196]
potency loss (HNMT [1]): at least 10 fold

SMILES: c1cncc(Nc2cc3c(cn2)CN(CC2CCOC2)CCN3)c1 (centres unmarked) [NCGC00411147]
HNMT activity and specificity in SAR analysis (HNMT [1]; 11-point dose response): potency loss

SMILES: c1ccc(Nc2cc3c(cn2)CN(Cc2c[nH]c4ccccc24)CCN3)cc1 [NCGC00411050]
potency loss (HNMT [1]): at least 10 fold

SMILES: Fc1ccccc1CN1CCNc2cc(Nc3cccnc3)ncc2C1 [NCGC00411168]
HNMT activity and specificity in SAR analysis (HNMT [1]; 11-point dose response): showed best activity

SMILES: NCC(=O)O [Glycine]
Km (GNMT [12]): > 500 µM

SMILES: Oc1ccccc1CN1CCNc2cc(Nc3ccccc3)ncc2C1 [NCGC00411199]
potency loss (HNMT [1]): at least 10 fold

SMILES: c1ccc(Nc2cc3c(cn2)CN(Cc2cc[nH]n2)CCN3)cc1 [NCGC00411115]
potency loss (HNMT [1]): at least 10 fold

SMILES: Nc1ncnc2c1ncn2[C@@H]1O[C@H](C[C@@H](N)CC[C@H](N)C(=O)O)[C@@H](O)[C@H]1O [sinefungin, reference compound]
inhibition by positive control (NNMT [2]; [13]): inhibitable
inhibition by positive control (GAMT; [13]): inhibitable
inhibition by positive control (COMT [4]; [13]): inhibitable
inhibition by positive control (GNMT [6]; [13]): All MTases except GNMT were inhibitable
inhibition by positive control (PNMT [10]; [13]): inhibitable
inhibition of counter-assay by positive control [11]: not inhibited
inhibition by positive control (HNMT [1]; [13]): inhibitable

SMILES: c1cncc(Nc2cc3c(cn2)CN(Cc2c[nH]c4ccccc24)CCN3)c1 [NCGC00411220]
HNMT activity and specificity in SAR analysis (HNMT [1]; 11-point dose response): reduced specificity
